In patent US20140171431A1, “AZOLE HETEROCYCLIC COMPOUND, PREPARATION METHOD, PHARMACEUTICAL COMPOSITION AND USE” (priority 2011, published 2014):

Biological target: T1, Lp-PLA2 in rabbit serum (Oryctolagus cuniculus, UniProt G1SE06)
T1 construct: from tissue; host or cells: rabbit serum
T1 sequence (G1SE06 22-423): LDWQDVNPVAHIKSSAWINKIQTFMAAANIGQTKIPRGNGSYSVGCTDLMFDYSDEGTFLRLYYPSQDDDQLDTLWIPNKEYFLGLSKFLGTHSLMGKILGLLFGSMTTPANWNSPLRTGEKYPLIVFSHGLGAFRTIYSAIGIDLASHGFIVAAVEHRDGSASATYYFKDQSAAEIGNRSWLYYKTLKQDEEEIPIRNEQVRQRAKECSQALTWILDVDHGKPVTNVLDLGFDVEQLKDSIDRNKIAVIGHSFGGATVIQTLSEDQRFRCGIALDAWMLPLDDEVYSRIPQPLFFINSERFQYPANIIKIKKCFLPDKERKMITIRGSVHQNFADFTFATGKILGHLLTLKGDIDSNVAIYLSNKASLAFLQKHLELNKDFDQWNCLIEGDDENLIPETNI
Test: In vitro inhibitory activity towards the enzyme Lp-PLA2 in rabbit serum, [3H]PAF substrate
Type: biochemical
Conditions: rabbit serum; for inhibition at 0.1 µM: 100 nM, read-out: inhibition, %
Experimental: The activities of compounds were measured using [^3H] labeled platelet activating factor ([^3H]PAF, Perkinelmer, Lot NET910) as the substrate. The reaction was carried out in a system containing 50 mmol/L HEPES and 150 mmol/L NaCl (pH 7.4) in a total volume of 200 μl. First, 10 μL rabbit serum and 10 μl DMSO solution of the test compound were added to the system and preincubated for 10 min at 37° C. Then 20 nM [^3H]PAF was added as listed in table 1 to start the reaction and incubated for a further 10 min at 37° C. After that, 600 μl of CHCl3/MeOH (2:1) was added and the resulting mixture was vortex mixed and the reaction was stopped. After settled for a while, the mixture was centrifugated at 12000×g for 15 min. The supernatant was transferred to a new tube and 200 μl of CHCl3 was added. The mixture was mixed by vortexing and then settled or centrifugated for 2 min. A 100 μl portion of the supernatant was then collected for radioactivity intensity measurement.
The inhibition rate was determined by the following equation:
Inhibitory rate (%)=1−(DPMcompound tube−DPMblank tube)/(DPMcontrol tube−DPMblank tube)*100%
(Note: DPM is radioactivity intensity unit.)

| inhibition at 1 µM [%] | inhibition at 10 µM [%] | inhibition at 0.1 µM [%] | SMILES |
| --- | --- | --- | --- |
| 29 | 76.8 |  | O=c1nc(SCc2cccc(F)c2F)n(CC2=NOC(c3ccc(-c4ccc(C(F)(F)F)cc4)cc3)N2CCN2CCOCC2)c2c1CCC2 (centres unmarked) [Example 19, 2-(2,3-difluorobenzylthio)-1-((4-(2-morpholinoethyl)-5-(4′-(trifluoromethyl)biphenyl-4-yl)-4,5-dihydro-1,2,4-oxadiazol-3-yl)methyl)-6,7-dihydro-1H-cyclopenta[d]pyrimidin-4(5H)-one] |
| 64.9 |  | 12.6 | Cc1cnc(Cn2cc(Cc3cnn(C)c3)c(=O)nc2SCc2ccc(F)cc2)n1Cc1ccc(-c2ccc(C(F)(F)F)cc2)cc1 [Example 41, 2-(4-fluorobenzylthio)-1-((5-methyl-1-((4′-(trifluoromethyl)biphenyl-4-yl)methyl)-1H-imidazol-2-yl)methyl)-5-((1-methyl-1H-pyrazol-4-yl)methyl)pyrimidin-4(1H)-one] |
| 21 | 33.6 |  | CCn1c(Cn2c(SCc3ccc(F)cc3)nc(=O)c3c2CCC3)nnc1-c1ccc(-c2ccc(C(F)(F)F)cc2)cc1 [Example 55, 1-((4-ethyl-5-(4′-(trifluoromethyl)biphenyl-4-yl)-4H-1,2,4-triazol-3-yl)methyl)-2-(4-fluorobenzylthio)-6,7-dihydro-1H-cyclopenta[d]pyrimidin-4(5H)-one] |
|  | 51.2 |  | CCOC(=O)N1CCC(N2C(Cn3c(SCc4cccc(F)c4F)nc(=O)c4c3CCC4)=NOC2c2ccc(-c3ccc(C(F)(F)F)cc3)cc2)CC1 (centres unmarked) [Example 21, ethyl 4-(3-((2-(2,3-difluorobenzylthio)-4-oxo-4,5,6,7-tetrahydro-1H-cyclopenta[d]pyrimidin-1-yl)methyl)-5-(4′-(trifluoromethyl)biphenyl-4-yl)-1,2,4-oxadiazol-4(5H)-yl)piperidine-1-carboxylate] |
| 23 | 74.3 |  | O=c1nc(SCc2ccc(F)cc2)n(CC2=NOC(c3ccc(-c4ccc(C(F)(F)F)cc4)cc3)N2CCN2CCOCC2)c2c1CCC2 (centres unmarked) [Example 25, 2-(4-fluorobenzylthio)-1-((4-(2-morpholinoethyl)-5-(4′-(trifluoromethyl)bi-phenyl-4-yl)-4,5-dihydro-1,2,4-oxadiazol-3-yl)meth-yl)-6,7-dihydro-1H-cy-clopenta[d]pyrimidin-4(5H)-one] |
|  | 7.4 |  | O=c1nc(SCc2ccc(F)cc2)n(Cc2ncc(-c3ccccc3)[nH]2)c2c1CCC2 [Example 26, 2-(4-fluorobenzylthio)-1-((5-phenyl-1H-imidazol-2-yl)methyl)-6,7-dihydro-1H-cyclopenta[d]pyrimidin-4(5H)-one] |
| 16.3 | 78.5 |  | CCN(CC)CCN1C(Cn2c(SCc3ccc(F)cc3)nc(=O)c3c2CCC3)=NOC1c1ccc(-c2ccc(C(F)(F)F)cc2)cc1 (centres unmarked) [Example 24, 1-((4-(2-(diethylamino)eth-yl)-5-(4′-(trifluorometh-yl)biphenyl-4-yl)-4,5-di-hydro-1,2,4-oxadiazol-3-yl)methyl)-2-(4-fluorobenzyl-thio)-6,7-dihydro-1H-cyclopenta[d]pyrimidin-4(5H)-one] |
|  |  | 57 | CCOC(=O)c1cnc(Cn2c(SCc3ccc(F)cc3)nc(=O)c3c2CCC3)n1Cc1ccc(-c2ccc(C(F)(F)F)cc2)cc1 [Example 50, ethyl 2-((2-(4-fluorobenzylthio)-4-oxo-4,5,6,7-tetrahydro-1H-cyclopenta[d]pyrimidin-1-yl)methyl)-1-((4′-(trifluoromethyl)biphenyl-4-yl)methyl)-1H-imidazole-5-carboxylate] |
| 88.8 |  | 35.9 | Cn1cc(Cc2cn(Cc3nc4ccccc4n3Cc3ccc(-c4ccc(C(F)(F)F)cc4)cc3)c(SCc3ccc(F)cc3)nc2=O)cn1 [Example 54, 2-(4-fluorobenzylthio)-5-((1-methyl-1H-pyrazol-4-yl)methyl)-1-((1-((4′-(trifluoromethyl)biphenyl-4-yl)methyl)-1H-benzo[d]imidazol-2-yl)methyl)pyrimidin-4 (1H)-one] |
|  | 63 |  | CCOC(=O)N1CCC(N2C(Cn3c(SCc4ccc(F)cc4)nc(=O)c4c3CCC4)=NOC2c2ccc(-c3ccc(C(F)(F)F)cc3)cc2)CC1 (centres unmarked) [Example 22] |
| 90.7 |  | 53.1 | Cc1cnc(Cn2c(SCc3ccc(F)cc3)nc(=O)c3c2CCC3)n1Cc1ccc(-c2ccc(C(F)(F)F)cc2)cc1 [Example 40, 2-(4-fluorobenzylthio)-1-((5-methyl-1-((4′-(trifluoromethyl)biphenyl-4-yl)methyl)-1H-imidazol-2-yl)methyl)-6,7-dihydro-1H-cyclopenta[d]pyrimidin-4 (5H)-one] |
|  | 9.3 |  | CCn1c(CCCc2ccccc2)nnc1Cn1c(SCc2ccc(F)cc2)nc(=O)c2c1CCC2 [Example 59, 1-((4-ethyl-5-(3-phenylpropyl)-4H-1,2,4-triazol-3-yl)methyl)-2-(4-fluorobenzylthio)-6,7-dihydro-1H-cyclopenta[d]pyrimidin-4(5H)-one] |
| 16 | 20.4 |  | CCN(CC)CCn1c(-c2ccc(-c3ccc(C(F)(F)F)cc3)cc2)cnc1Cn1c(SCc2ccc(F)cc2)nc(=O)c2c1CCC2 [Example 38, 1-((1-(2-(diethylamino)ethyl)-5-(4′-(trifluoromethyl)biphenyl-4-yl)-1H-imidazol-2-yl)methyl)-2-(4-fluorobenzylthio)-6,7-dihydro-1H-cyclopenta[d]pyrimidin-4(5H)-one] |
|  | 40 |  | CCn1c(Cc2ccc(-c3ccc(C(F)(F)F)cc3)cc2)nnc1Cn1c(SCc2ccc(F)cc2)nc(=O)c2c1CCC2 [Example 60, 1-((4-ethyl-5-((4′-(trifluoromethyl)biphenyl-4-yl)methyl)-4H-1,2,4-triazol-3-yl)methyl)-2-(4-fluorobenzylthio)-6,7-dihydro-1H-cyclopenta[d]pyrimidin-4(5H)-one] |
| 25 | 60.3 |  | O=c1nc(SCc2ccc(F)cc2)n(CC2=NOC(c3ccc(-c4ccc(C(F)(F)F)cc4)cc3)N2)c2c1CCC2 (centres unmarked) [Example 7, 2-(4-fluorobenzylthio)-1-((5-(4′-(trifluoromethyl)biphen-yl-4-yl)-4,5-dihydro-1,2,4-oxadiazol-3-yl)methyl)-6,7-dihydro-1H-cyclo-penta[d]pyrimidin-4(5H)-one] |
| 10 | 62.6 |  | CCCCCCCC1NC(Cn2c(SCc3ccc(F)cc3)nc(=O)c3c2CCC3)=NO1 (centres unmarked) [Example 1, 2-(4-fluorobenzylthio)-1-((5-n-heptyl-4,5-dihydro-1,2,4-oxadiazol-3-yl)methyl)-6,7-dihydro-1H-cyclopenta[d]pyrimidin-4(5H)-one] |
| 7.4 | 41.9 |  | CCCC/C=C/N1C(Cn2c(SCc3ccc(F)cc3)nc(=O)c3c2CCC3)=NOC1CCCCCCC (centres unmarked) [Example 18, (E)-2-(4-fluorobenzylthio)-1-((5-n-heptyl-4-(n-hex-1-enyl)-4,5-dihydro-1,2,4-ox-adiazol-3-yl)methyl)-6,7-di-hydro-1H-cyclopenta[d]py-rimidin-4(5H)-one] |
|  |  | 13.4 | CC(C)(C(=O)O)N1CCN(Cc2nnc(Cn3c(SCc4ccc(F)cc4)nc(=O)c4c3CCC4)n2Cc2ccc(-c3ccc(C(F)(F)F)cc3)cc2)CC1 [Example 89, 2-(4-((5-((2-(4-fluorobenzylthio)-4-oxo-4,5,6,7-tetrahydro-1H-cyclopenta[d]pyrimidin-1-yl)methyl)-4-((4′-(trifluoromethyl)biphenyl-4-yl)methyl)-4H-1,2,4-triazol-3-yl)methyl)piperazin-1-yl)-2-methylpropanoic acid] |
